Assay results reported in US9850247B2 (Almac Discovery Limited, priority 2013, dated 2017).

Legend:
[1] = CLint estimates using human liver microsomes (Method 4); type: in vitro ADME; settings: pH 7.4, 1 μM compound, read-out: Mics - CLint (HLM CLint)
Summary of the method: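 Compound at 1 μM (0.1% DMSO) incubated with human liver microsomes (0.5 mg protein/mL) in 0.1 M phosphate pH 7.4 at 37 °C, started with 1 mM NADPH. Samples taken 2–50 min, quenched in methanol, measured by LC/MS/MS (MRM). Half-life and CLint derived from the slope of ln peak area versus time.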

[2] = test system: phospho-cdc2 (Tyr15) in HT-29 cells; assay: Effect on Cdc2 phosphorylation at Tyr15, Cell-Based ELISA Base Kit (Method 3); settings: Homo sapiens, HT-29, 8 h, eight hours incubation, normalized to total cdc2, read-out: HT29 pCDC2 method 3
Summary of the method: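 HT-29 cells were treated with compounds for 8 h at 37 °C, then fixed in 4% formaldehyde. Phospho-cdc2 (Tyr15) and total cdc2 were read by dual-fluorogenic cell-based ELISA at 600/450 nm. Phospho signal was normalized to total cdc2 and expressed as % of DMSO control, and EC50 came from non-linear regression.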

[3] = target: T1, Wee-1 kinase (Homo sapiens, UniProt P30291); assay: Measurement of Wee-1 kinase activity (ADP-Glo luminescent kit); type: biochemical
T1 construct: purchased Invitrogen PV3817
T1 sequence (P30291 whole entry): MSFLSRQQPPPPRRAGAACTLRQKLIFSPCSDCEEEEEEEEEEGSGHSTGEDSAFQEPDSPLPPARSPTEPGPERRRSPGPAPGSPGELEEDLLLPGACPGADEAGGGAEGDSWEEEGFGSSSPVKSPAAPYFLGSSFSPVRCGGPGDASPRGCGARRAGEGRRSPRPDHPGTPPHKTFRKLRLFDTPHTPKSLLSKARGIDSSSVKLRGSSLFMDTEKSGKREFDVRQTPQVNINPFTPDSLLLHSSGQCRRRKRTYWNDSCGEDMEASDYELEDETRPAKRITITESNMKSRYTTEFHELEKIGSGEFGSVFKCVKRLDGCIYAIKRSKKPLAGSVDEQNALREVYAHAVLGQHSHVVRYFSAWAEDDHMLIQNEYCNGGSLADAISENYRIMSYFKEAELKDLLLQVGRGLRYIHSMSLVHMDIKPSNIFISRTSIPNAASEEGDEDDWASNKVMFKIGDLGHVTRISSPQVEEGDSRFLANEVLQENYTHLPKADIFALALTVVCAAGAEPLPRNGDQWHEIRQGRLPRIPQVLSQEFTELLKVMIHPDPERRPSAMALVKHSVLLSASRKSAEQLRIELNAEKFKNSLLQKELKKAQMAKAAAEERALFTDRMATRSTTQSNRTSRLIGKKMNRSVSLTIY
Summary of the method: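 Activated Wee-1 was pre-incubated 30 min at RT with compound in 40 mM Tris-HCl, 20 mM MgCl2, 0.1 mg/mL BSA and 2 mM DTT. The reaction was started with an aliquot of 2.0 μg/mL poly(Lys,Tyr 4:1) plus 30 μM ATP and run 1 h at RT. ADP-Glo luminescence gave IC50 by non-linear fit.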

| microsomal CLint at 1 μM [1] | IC50 [3] | Structure (SMILES) | EC50 [2] |
| --- | --- | --- | --- |
| ≤ 15 µL/min/mg | ≤ 10 nM | CN1CN(c2c(Cl)cccc2Cl)C(=O)c2cnc(Nc3ccc(N4CCN(C(=O)CN)CC4)cc3)nc21 [Example 13, 7-((4-(4-(2-Aminoacetyl)piperazin-1-yl)phenyl)amino)-3-(2,6-dichlorophenyl)-1-methyl-2,3-dihydropyrimido[4,5-d]pyrimidin-4(1H)-one] | 100 to 1000 nM |
| 15 to 50 µL/min/mg | ≤ 10 nM | COc1cc(Nc2ncc3c(n2)N(C)CN(c2c(Cl)cccc2Cl)C3=O)ccc1N1CCNCC1 [Example 3, 3-(2,6-Dichlorophenyl)-7-((3-methoxy-4-(piperazin-1-yl)phenyl)amino)-1-methyl-2,3-dihydropyrimido[4,5-d]pyrimidin-4(1H)-one] | 100 to 1000 nM |
| ≤ 15 µL/min/mg | ≤ 10 nM | C[C@@H]1CN(c2ccc(Nc3ncc4c(n3)N(C)CN(c3c(Cl)cccc3Cl)C4=O)cc2F)CCN1 [Example 43, (R)-3-(2,6-dichlorophenyl)-7-((3-fluoro-4-(3-methylpiperazin-1-yl)phenyl)amino)-1-methyl-2,3-dihydropyrimido[4,5-d]pyrimidin-4(1H)-one] | 100 to 1000 nM |
| ≤ 15 µL/min/mg | 10 to 100 nM | C[C@@H]1CN(c2ccc(Nc3ncc4c(n3)N(C)CN(c3c(F)cccc3Cl)C4=O)cc2)CCN1 [Example 53, (R)-3-(2-chloro-6-fluorophenyl)-1-methyl-7-((4-(3-methylpiperazin-1-yl)phenyl)amino)-2,3-dihydropyrimido[4,5-d]pyrimidin-4(1H)-one] | 100 to 1000 nM |
| 15 to 50 µL/min/mg | 10 to 100 nM | CC(C)N1CCN(c2ccc(Nc3ncc4c(n3)N(C)CN(c3c(Cl)cccc3Cl)C4=O)cc2CO)CC1 [Example 21, 3-(2,6-Dichlorophenyl)-7-((3-(hydroxymethyl)-4-(4-isopropylpiperazin-1-yl)phenyl)amino)-1-methyl-2,3-dihydropyrimido[4,5-d]pyrimidin-4(1H)-one] | 100 to 1000 nM |
| ≤ 15 µL/min/mg | ≤ 10 nM | CNCc1cc(Nc2ncc3c(n2)N(C)CN(c2c(Cl)cccc2Cl)C3=O)ccc1N1CCOCC1 [Example 5, 3-(2,6-Dichlorophenyl)-1-methyl-7-((3-((methylamino)methyl)-4-morpholinophenyl)amino)-2,3-dihydropyrimido[4,5-d]pyrimidin-4(1H)-one] | 100 to 1000 nM |
| ≤ 15 µL/min/mg | ≤ 10 nM | CN1CN(c2c(Cl)cccc2Cl)C(=O)c2cnc(Nc3ccc(N4CCN[C@@H](CO)C4)cc3)nc21 [Example 19, (R)-3-(2,6-Dichlorophenyl)-7-((4-(3-(hydroxymethyl)piperazin-1-yl)phenyl)amino)-1-methyl-2,3-dihydropyrimido[4,5-d]pyrimidin-4(1H)-one] | 100 to 1000 nM |
| ≤ 15 µL/min/mg | 10 to 100 nM | COCc1cc(Nc2ncc3c(n2)N(C)CN(c2c(Cl)cccc2Cl)C3=O)ccc1N1CCNCC1 [Example 31, 3-(2,6-dichlorophenyl)-7-((3-(methoxymethyl)-4-(piperazin-1-yl)phenyl)amino)-1-methyl-2,3-dihydropyrimido[4,5-d]pyrimidin-4(1H)-one] | 100 to 1000 nM |
| 15 to 50 µL/min/mg | 10 to 100 nM | C[C@H]1CN(c2ccc(Nc3ncc4c(n3)N(C)CN(c3c(Cl)cccc3Cl)C4=O)cc2)CCN1 [Example 17, (S)-3-(2,6-Dichlorophenyl)-1-methyl-7-((4-(3-methylpiperazin-1-yl)phenyl)amino)-2,3-dihydropyrimido[4,5-d]pyrimidin-4(1H)-one] | 100 to 1000 nM |
| ≤ 15 µL/min/mg | 10 to 100 nM | COCc1cc(Nc2ncc3c(n2)N(C)CN(c2c(Cl)cccc2Cl)C3=O)ccc1N1CCN[C@H](C)C1 [Example 59, (R)-3-(2,6-dichlorophenyl)-7-((3-(methoxymethyl)-4-(3-methylpiperazin-1-yl)phenyl)amino)-1-methyl-2,3-dihydropyrimido[4,5-d]pyrimidin-4(1H)-one] | 100 to 1000 nM |
| ≤ 15 µL/min/mg | ≤ 10 nM | CNCCOc1ccc(Nc2ncc3c(n2)N(C)CN(c2c(Cl)cccc2Cl)C3=O)cc1 [Example 2, 3-(2,6-Dichlorophenyl)-1-methyl-7-((4-(2-(methylamino)ethoxy)phenyl)amino)-2,3-dihydropyrimido[4,5-d]pyrimidin-4(1H)-one] | 100 to 1000 nM |
| ≤ 15 µL/min/mg | ≤ 10 nM | C[C@@H]1CN[C@@H](C)CN1c1ccc(Nc2ncc3c(n2)N(C)CN(c2c(Cl)cccc2Cl)C3=O)cc1 [Example 40, 3-(2,6-dichlorophenyl)-7-((4-((2R,5S)-2,5-dimethylpiperazin-1-yl)phenyl)amino)-1-methyl-2,3-dihydropyrimido[4,5-d]pyrimidin-4(1H)-one] | 100 to 1000 nM |
| ≤ 15 µL/min/mg | 10 to 100 nM | COC[C@H]1CN(c2ccc(Nc3ncc4c(n3)N(C)CN(c3c(Cl)cccc3Cl)C4=O)cc2)CCN1 [Example 60, (R)-3-(2,6-dichlorophenyl)-7-((4-(3-(methoxymethyl)piperazin-1-yl)phenyl)amino)-1-methyl-2,3-dihydropyrimido[4,5-d]pyrimidin-4(1H)-one] | 100 to 1000 nM |
| ≤ 15 µL/min/mg | ≤ 10 nM | C[C@@H]1CN(c2ccc(Nc3ncc4c(n3)N(C)CN(c3c(Cl)cccc3Cl)C4=O)cc2)CCN1 [Example 16, (R)-3-(2,6-Dichlorophenyl)-1-methyl-7-((4-(3-methylpiperazin-1-yl)phenyl)amino)-2,3-dihydropyrimido[4,5-d]pyrimidin-4(1H)-one] | 100 to 1000 nM |
| ≤ 15 µL/min/mg | ≤ 10 nM | CN1CN(c2c(Cl)cccc2Cl)C(=O)c2cnc(Nc3ccc(N4CCNCC4)c(C#N)c3)nc21 [Example 11, 3-(2,6-Dichlorophenyl)-7-((3-cyano-4-(piperazin-1-yl)phenyl)amino)-1-methyl-2,3-dihydropyrimido[4,5-d]pyrimidin-4(1H)-one] | 100 to 1000 nM |
| ≤ 15 µL/min/mg | 10 to 100 nM | CN1CN(c2c(F)cccc2Cl)C(=O)c2cnc(Nc3ccc(N4CCNCC4)cc3)nc21 [Example 25, 3-(2-Chloro-6-fluorophenyl)-1-methyl-7-((4-(piperazin-1-yl)phenyl)amino)-2,3-dihydropyrimido[4,5-d]pyrimidin-4(1H)-one] | 100 to 1000 nM |
| 15 to 50 µL/min/mg | ≤ 10 nM | CN1CCc2ccc(Nc3ncc4c(n3)N(C)CN(c3c(Cl)cccc3Cl)C4=O)cc2C1 [Example 22, 3-(2,6-Dichlorophenyl)-1-methyl-7-((2-methyl-1,2,3,4-tetrahydroisoquinolin-7-yl)amino)-2,3-dihydropyrimido[4,5-d]pyrimidin-4(1H)-one] | 100 to 1000 nM |
| ≤ 15 µL/min/mg | ≤ 10 nM | Cc1cc(Nc2ncc3c(n2)N(C)CN(c2c(Cl)cccc2Cl)C3=O)ccc1C1CCNCC1 [Example 18, 3-(2,6-Dichlorophenyl)-1-methyl-7-((3-methyl-4-(piperidin-4-yl)phenyl)amino)-2,3-dihydropyrimido[4,5-d]pyrimidin-4(1H)-one] | 100 to 1000 nM |
| ≤ 15 µL/min/mg | ≤ 10 nM | [2H]C1([2H])N(C)c2nc(Nc3ccc(N4CCNCC4)cc3)ncc2C(=O)N1c1c(Cl)cccc1Cl [Example 15, 3-(2,6-Dichlorophenyl)-2,2-dideutero-1-methyl-7-((4-(piperazin-1-yl)phenyl)amino)-2,3-dihydropyrimido[4,5-d]pyrimidin-4(1H)-one] | 100 to 1000 nM |
| ≤ 15 µL/min/mg | ≤ 10 nM | CN1CN(c2c(Cl)cccc2Cl)C(=O)c2cnc(Nc3ccc4c(c3)CNCC4)nc21 [Example 14, 3-(2,6-Dichlorophenyl)-1-methyl-7-((1,2,3,4-tetrahydroisoquinolin-7-yl)amino)-2,3-dihydropyrimido[4,5-d]pyrimidin-4(1H)-one] | 100 to 1000 nM |
| 15 to 50 µL/min/mg | ≤ 10 nM | Cc1cc(Nc2ncc3c(n2)N(C)CN(c2c(Cl)cccc2Cl)C3=O)ccc1N1CCNCC1 [Example 6, 3-(2,6-Dichlorophenyl)-1-methyl-7-((3-methyl-4-(piperazin-1-yl)phenyl)amino)-2,3-dihydropyrimido[4,5-d]pyrimidin-4(1H)-one] | 100 to 1000 nM |

| Structure (SMILES) | microsomal CLint at 1 μM [1] | IC50 [3] | EC50 [2] |
| --- | --- | --- | --- |
| CN1CN(c2c(Cl)cccc2Cl)C(=O)c2cnc(Nc3ccc(N4CC5CCC(C4)N5)cc3)nc21 [Example 74, 7-((4-(3,8-diazabicyclo[3.2.1]octan-3-yl)phenyl)amino)-3-(2,6-dichlorophenyl)-1-methyl-2,3-dihydropyrimido [4,5-d]pyrimidin-4(1H)-one] | ≤ 15 µL/min/mg | 10 to 100 nM | 100 to 1000 nM |
| CN1CN(c2c(Cl)cccc2Cl)C(=O)c2cnc(Nc3ccc(N4CC5CCC(C4)N5C)c(CO)c3)nc21 [Example 86, 3-(2,6-dichlorophenyl)-7-((3-(hydroxymethyl)-4-(8-methyl-3,8-diazabicyclo[3.2.1]octan-3-yl)phenyl)amino)-1-methyl-2,3-dihydropyrimido[4,5-d]pyrimidin-4(1H)-one] | ≤ 15 µL/min/mg | ≤ 10 nM | 100 to 1000 nM |
